For one compound, MIC results are on record in patent US10544146B2, “Bicyclic compounds and their use as antibacterial agents and β-lactamase inhibitors” (priority 2011, dated 2020).

Assay in all cases: MIC, antibacterial and synergistic activity
What all share (type): cell-based

One assay has as its system K. pneumo JMI 4106. The conditions noted are these: K. pneumo JMI 4106, KPC-3, TEM-1, SHV-12, SHV-141; substance alone.
In another assay the test system is E. coli JMI 4103. The conditions noted are these: Escherichia coli, JMI4103; E. coli JMI 4103, KPC-2, Tem-1, CMY-Type; substance alone.
A further assay has as its system K. pneumo JMI 4109. The conditions noted are these: K. pneumo JMI 4109, SHV-1, SHV-12; substance alone.
A further assay relates to E. coli JMI 10768. The conditions noted are these: Escherichia coli, JMI10768; E. coli JMI 10768, CTX-M15 (Weak ESBL); substance alone.
In another assay the test system is E. coli JMI 10770. The conditions noted are these: Escherichia coli, JMI10770; E. coli JMI 10770, CTX-M15 (Hyper ESBL); substance alone.
The next assay deals with K. pneumo JMI 4088. The settings on record: K. pneumo JMI 4088, KPC-3 (Cpase); substance alone.
A further assay deals with E. cloacae JMI 36. The settings on record: Enterobacter cloacae, JMI36; E. cloacae JMI 36, P99; substance alone. The method, then: (§1) In the Tables 10-12, compounds of the present invention were tested in combination with various antibiotics against metallo β-lactamase producing bacteria.
A further assay deals with K. pneumo JMI 2697. The settings on record: K. pneumo JMI 2697, IMP-4 (Cpase); substance alone. As to the method:
as §1

Another assay deals with E. coli JMI 2671. The settings on record: Escherichia coli, JMI2671, E. coli JMI 2671, VIM-19 (Cpase); substance alone. As to the method:
as §1

The test system of the next assay is E. coli ATCC 25922. The conditions noted are these: Escherichia coli, ATCC25922, E. coli ATCC 25922, enzyme Wt; substance alone. As to the method:
as §1

Another assay concerns A. baumanii JMI 2659. The settings on record: Acinetobacter baumannii, JMI2659; A. baumanii JMI 2659, Ges-14 (Cpase); substance alone. As to the method: as §1
A further assay deals with K. pneumo JMI 2693. The conditions noted are these: K. pneumo JMI 2693, NDM-1 (Cpase); substance alone. As to the method:
as §1

The test system of another assay is E. coli JMI 2692. The conditions noted are these: Escherichia coli, JMI2692; E. coli JMI 2692, NDM-1, TEM-1, CTX-M-15; substance alone. As to the method: as §1
For the next assay, the system named is K. pneumo JMI 2699. The conditions noted are these: K. pneumo JMI 2699, VIM-1, CTX-M3; substance alone. The method, then: as §1
The next assay relates to E. coli JMI 10767. The conditions noted are these: Escherichia coli, JMI10767; E. coli JMI 10767, Wt; substance alone. The method, then:
as §1

For the next assay, the system named is P. aerug JMI 149. The conditions noted are these: P. aerug JMI 149, Bla+++D+; substance alone. The method, then: as §1
A further assay deals with K. pneumo JMI 2674. The settings on record: K. pneumo JMI 2674, CTX-M15 (ESBL); substance alone.
For another assay, the system named is K. pneumo JMI 2673. The conditions noted are these: K. pneumo JMI 2673, CTX-M14 (ESBL); substance alone.
Another assay has as its system E. coli JMI 11103. The settings on record: Escherichia coli, JMI11103, E. coli JMI 11103, CTX-M15 (Intermediate ESBL); substance alone.
Another assay deals with E. coli JMI 2665. The settings on record: Escherichia coli, JMI2665, read-out: MIC alone.
The subject of another assay is K. pneumo JMI 2681. The conditions noted are these: K. pneumo JMI 2681, Oxa-48 (Cpase); substance alone.
The next assay deals with P. aerug JMI 2686. The conditions noted are these: P. aerug JMI 2686, KPC-2 (Cpase); substance alone.
In a further assay the test system is E. coli JMI 4080. The conditions noted are these: Escherichia coli, JMI4080, E. coli JMI 4080, Tem-10; substance alone.

Molecules are shown by their SMILES.

In the case of `O=C(NNC(=O)[C@H]1CC[C@H]2CN1C(=O)N2OS(=O)(=O)O)C1CNC1` (stereo in doubt) [Ex. 67, (2R,5S)-N′-(azetidin-3-ylcarbonyl)-7-oxo-6-(sulfooxy)-1,6-diazabicyclo[3.2.1]octane-2-carbohydrazide], the MIC with K. pneumo JMI 4106 was 8 µg/mL; with E. coli JMI 4103, 16 µg/mL; in the assay with K. pneumo JMI 4109 it was 4 µg/mL; with E. coli JMI 10768, > 16 µg/mL; with E. coli JMI 10770, > 16 µg/mL; in the assay on K. pneumo JMI 4088, 16 µg/mL. Moreover, the MIC was > 16 µg/mL in the assay on E. cloacae JMI 36; 16 µg/mL with K. pneumo JMI 2697; > 16 µg/mL in the assay with E. coli JMI 2671; > 16 µg/mL with E. coli ATCC 25922; > 16 µg/mL with A. baumanii JMI 2659; > 16 µg/mL with K. pneumo JMI 2693. Also, the MIC with E. coli JMI 2692 is 8 µg/mL; in the assay with K. pneumo JMI 2699 it was > 16 µg/mL; in the assay with E. coli JMI 10767, > 16 µg/mL; in the assay on P. aerug JMI 149, 16 µg/mL; in the assay on K. pneumo JMI 2674, > 16 µg/mL; with K. pneumo JMI 2673 it was > 16 µg/mL. Further, the MIC with E. coli JMI 11103 is > 16 µg/mL; with E. coli JMI 2665, 8 µg/mL; with K. pneumo JMI 2681 it was > 16 µg/mL; with P. aerug JMI 2686, 16 µg/mL; in the assay on E. coli JMI 4080 it was 16 µg/mL.

What is called MIC is the least concentration at which growth counts as inhibited.
